Experimental findings from patent publication US8785457B2 (Cellzome Limited, priority 2009, dated 2014) are described below.

Test [1] concerns S6RP serine-240/244 phosphorylation. Kind of test: In vitro Phospho-S6 cellular assay (pS6RP S240/244) in HEK293T/17 cells. Type of test: cell-based. The conditions noted are these: Homo sapiens, 2 hours, read-out: pS6 IC50. In outline: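 HEK293T/17 cells were seeded at 40,000 (pS6RP) or 80,000 (pAkt) cells/well in DMEM with 2% FCS. They were exposed to 8 compound concentrations (0.1% DMSO) for 2 h at 37 °C and then lysed. Phosphoprotein was quantified by MesoScale electrochemiluminescence sandwich immunoassay, and the sigmoidal variable-slope dose-response was fitted.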

The next test has as its target T1, PI3 Kgamma (PI3 Kg) (Homo sapiens, UniProt P48736).
T1 construct: endogenous in cells; host or cells: cell lysate
Kind of test: kinobeads assay, PI3Kgamma. Type of test: binding. The conditions noted are these: kinobeads assay, Table 6; read-out: Inhibition values (IC50) PI3Kg. In outline: (§1)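 Read-out is multiplexed immunodetection of kinase eluted from phenylmorpholin-chromen ligand beads after their incubation in cell lysate with test compound at various concentrations. Reduced capture reflects competition, and per-kinase dose-response curves yield IC50.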

The target in a further test is T2, PI3 Kbeta (PI3 Kb) (Homo sapiens, UniProt P42338).
T2 construct: endogenous in cells; host or cells: cell lysate
T2 sequence (P42338 whole entry): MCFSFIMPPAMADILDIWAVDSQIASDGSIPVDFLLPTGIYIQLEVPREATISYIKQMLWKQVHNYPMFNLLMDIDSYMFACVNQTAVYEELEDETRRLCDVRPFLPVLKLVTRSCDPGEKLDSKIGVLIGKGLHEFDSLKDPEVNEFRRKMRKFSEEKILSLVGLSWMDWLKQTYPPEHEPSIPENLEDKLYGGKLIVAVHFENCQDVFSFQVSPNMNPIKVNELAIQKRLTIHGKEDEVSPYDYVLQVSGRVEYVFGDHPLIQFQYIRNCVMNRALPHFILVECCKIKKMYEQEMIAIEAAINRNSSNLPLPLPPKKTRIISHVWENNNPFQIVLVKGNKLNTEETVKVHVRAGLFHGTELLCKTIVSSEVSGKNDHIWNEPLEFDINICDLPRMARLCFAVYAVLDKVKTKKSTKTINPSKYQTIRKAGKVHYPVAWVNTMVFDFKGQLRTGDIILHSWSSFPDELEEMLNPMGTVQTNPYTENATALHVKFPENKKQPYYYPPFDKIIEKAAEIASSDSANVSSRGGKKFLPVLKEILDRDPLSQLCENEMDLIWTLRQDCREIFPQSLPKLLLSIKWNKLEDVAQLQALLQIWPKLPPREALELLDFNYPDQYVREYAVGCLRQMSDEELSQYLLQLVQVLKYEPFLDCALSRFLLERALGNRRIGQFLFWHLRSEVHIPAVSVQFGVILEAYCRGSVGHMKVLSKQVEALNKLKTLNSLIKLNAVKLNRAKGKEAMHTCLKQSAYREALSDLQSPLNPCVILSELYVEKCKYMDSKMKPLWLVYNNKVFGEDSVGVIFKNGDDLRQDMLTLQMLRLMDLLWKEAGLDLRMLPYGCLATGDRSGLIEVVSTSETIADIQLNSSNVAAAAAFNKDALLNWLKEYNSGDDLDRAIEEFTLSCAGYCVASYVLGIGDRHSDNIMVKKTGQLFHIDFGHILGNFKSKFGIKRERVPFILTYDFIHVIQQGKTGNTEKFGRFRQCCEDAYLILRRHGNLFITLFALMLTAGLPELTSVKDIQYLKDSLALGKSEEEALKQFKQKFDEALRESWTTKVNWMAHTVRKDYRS
T2 sequence (P27986 whole entry partner): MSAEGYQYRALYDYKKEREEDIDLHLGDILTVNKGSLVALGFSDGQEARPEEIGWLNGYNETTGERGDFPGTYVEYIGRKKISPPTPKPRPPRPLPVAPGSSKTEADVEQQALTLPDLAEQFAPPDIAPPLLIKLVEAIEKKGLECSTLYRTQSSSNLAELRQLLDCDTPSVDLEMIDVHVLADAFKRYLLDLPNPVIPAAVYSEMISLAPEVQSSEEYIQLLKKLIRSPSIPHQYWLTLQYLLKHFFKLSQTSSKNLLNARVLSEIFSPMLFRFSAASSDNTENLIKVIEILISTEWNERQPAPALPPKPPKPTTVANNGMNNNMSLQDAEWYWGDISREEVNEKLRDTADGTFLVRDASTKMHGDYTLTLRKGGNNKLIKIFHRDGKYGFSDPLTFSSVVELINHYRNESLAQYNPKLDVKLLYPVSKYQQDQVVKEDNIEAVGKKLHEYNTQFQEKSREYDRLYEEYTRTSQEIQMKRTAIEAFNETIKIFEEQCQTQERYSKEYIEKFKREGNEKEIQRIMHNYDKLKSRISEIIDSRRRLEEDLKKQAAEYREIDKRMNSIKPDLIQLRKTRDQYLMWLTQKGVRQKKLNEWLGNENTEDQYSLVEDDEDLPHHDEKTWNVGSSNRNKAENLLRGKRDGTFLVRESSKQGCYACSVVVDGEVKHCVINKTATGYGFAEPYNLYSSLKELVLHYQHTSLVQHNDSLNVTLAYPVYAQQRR
Put plainly: kinobeads assay, PI3Kbeta. The following applies: kinobeads assay, Table 6; read-out: Inhibition values (IC50) PI3Kb. Type of test: binding. In outline: as §1

Bounds are passed on as bounds.

T1 sequence (P48736 whole entry): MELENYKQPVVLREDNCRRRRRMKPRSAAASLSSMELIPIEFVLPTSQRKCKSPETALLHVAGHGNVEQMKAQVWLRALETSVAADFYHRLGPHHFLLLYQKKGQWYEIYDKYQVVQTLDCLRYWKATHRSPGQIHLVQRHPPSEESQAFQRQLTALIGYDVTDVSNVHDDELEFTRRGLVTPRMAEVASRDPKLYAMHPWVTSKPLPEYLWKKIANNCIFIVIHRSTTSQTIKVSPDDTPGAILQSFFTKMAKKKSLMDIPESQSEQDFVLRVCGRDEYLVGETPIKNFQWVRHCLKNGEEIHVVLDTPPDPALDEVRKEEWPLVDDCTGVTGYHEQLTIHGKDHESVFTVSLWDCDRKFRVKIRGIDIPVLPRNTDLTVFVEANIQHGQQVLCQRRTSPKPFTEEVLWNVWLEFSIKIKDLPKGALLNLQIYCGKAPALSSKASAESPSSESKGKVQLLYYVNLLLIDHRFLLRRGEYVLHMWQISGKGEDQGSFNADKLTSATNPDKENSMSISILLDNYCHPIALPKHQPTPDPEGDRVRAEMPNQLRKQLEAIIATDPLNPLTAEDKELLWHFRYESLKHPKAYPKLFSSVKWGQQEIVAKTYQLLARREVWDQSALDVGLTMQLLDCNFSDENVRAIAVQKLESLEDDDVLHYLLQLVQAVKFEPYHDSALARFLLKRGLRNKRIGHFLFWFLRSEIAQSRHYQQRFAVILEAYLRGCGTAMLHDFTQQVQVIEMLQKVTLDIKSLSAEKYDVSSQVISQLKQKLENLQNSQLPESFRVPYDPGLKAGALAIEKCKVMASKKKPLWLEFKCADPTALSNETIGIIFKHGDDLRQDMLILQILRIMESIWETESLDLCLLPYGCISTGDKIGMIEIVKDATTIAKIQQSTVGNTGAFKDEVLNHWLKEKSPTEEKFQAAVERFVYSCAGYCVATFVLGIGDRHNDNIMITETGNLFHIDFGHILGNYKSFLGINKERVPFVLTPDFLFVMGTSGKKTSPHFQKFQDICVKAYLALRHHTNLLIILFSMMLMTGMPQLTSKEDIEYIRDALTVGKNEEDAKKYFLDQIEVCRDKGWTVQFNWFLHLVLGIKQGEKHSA

As to `CCNC(=O)Nc1ccc(-c2nc3c(c(N4CCOC[C@@H]4C)n2)CN(C(=O)OC(C)(C)C)C3)cc1` [Example 1, (S)-tert-butyl 2-(4-(3-ethylureido)phenyl)-4-(3-methylmorpholino)-5H-pyrrolo[3,4-d]pyrimidine-6(7H)-carboxylate], in test [1], the IC50 (commonly the midpoint of a concentration-inhibition curve) is 52 nM.
For `CCNC(=O)Nc1ccc(-c2nc3c(c(N4CCOC[C@@H]4C)n2)CCN(C(=O)C(C)(C)C)C3)cc1` [Example 58, (S)-1-ethyl-3-(4-(4-(3-methylmorpholino)-7-pivaloyl-5,6,7,8-tetrahydropyrido[3,4-d]pyrimidin-2-yl)phenyl)urea], the IC50 is 34 nM in test [1], > 10000 nM on PI3 Kgamma (PI3 Kg) and > 10000 nM at PI3 Kbeta (PI3 Kb).
As to `CCNC(=O)Nc1ccc(-c2nc3c(c(N4CCOC[C@@H]4C)n2)CCN(C(C)=O)C3)cc1` [Example 59, (S)-1-(4-(7-acetyl-4-(3-methylmorpholino)-5,6,7,8-tetrahydropyrido[3,4-d]pyrimidin-2-yl)phenyl)-3-ethylurea], in test [1], the concentration for half-maximal inhibition (IC50) stood at 160 nM.
As for `C[C@H]1COCCN1c1nc(-c2ccc(NC(=O)NC3CC3)cc2)nc2c1CCN(C(=O)C1CC1)C2` [Example 60, (S)-1-(4-(7-(cyclopropanecarbonyl)-4-(3-methylmorpholino)-5,6,7,8-tetrahydropyrido[3,4-d]pyrimidin-2-yl)phenyl)-3-cyclopropylurea], the IC50 in test [1] was 37 nM; on PI3 Kgamma (PI3 Kg), > 10000 nM; on PI3 Kbeta (PI3 Kb), > 10000 nM.
For the molecule `CC(C)C(=O)N1CCc2c(nc(-c3ccc(NC(=O)NC4CC4)cc3)nc2N2CCOC[C@@H]2C)C1` [Example 61, (S)-1-cyclopropyl-3-(4-(7-isobutyryl-4-(3-methylmorpholino)-5,6,7,8-tetrahydropyrido[3,4-d]pyrimidin-2-yl)phenyl)urea], the 50% inhibitory concentration (IC50) in test [1] is 22 nM; on PI3 Kgamma (PI3 Kg) it was > 10000 nM; on PI3 Kbeta (PI3 Kb), > 10000 nM.
As to `CC(=O)N1CCc2c(nc(-c3ccc(NC(=O)NC4CC4)cc3)nc2N2CCOC[C@@H]2C)C1` [Example 62, (S)-1-(4-(7-acetyl-4-(3-methylmorpholino)-5,6,7,8-tetrahydropyrido[3,4-d]pyrimidin-2-yl)phenyl)-3-cyclopropylurea], the IC50 is 49 nM in test [1], > 10000 nM on PI3 Kgamma (PI3 Kg) and > 10000 nM at PI3 Kbeta (PI3 Kb).
Take `C[C@H]1COCCN1c1nc(-c2ccc(NC(=O)NC3CC3)cc2)nc2c1CCN(C(=O)C(C)(C)C)C2` [Example 64, (S)-1-cyclopropyl-3-(4-(4-(3-methylmorpholino)-7-pivaloyl-5,6,7,8-tetrahydropyrido[3,4-d]pyrimidin-2-yl)phenyl)urea]: the IC50 is 30 nM in test [1], > 10000 nM at PI3 Kgamma (PI3 Kg) and > 10000 nM on PI3 Kbeta (PI3 Kb).
For the molecule `CC(C)CN1Cc2nc(-c3ccc(NC(=O)NC4CC4)cc3)nc(N3CCOC[C@@H]3C)c2C1` [Example 65, (S)-1-cyclopropyl-3-(4-(6-isobutyl-4-(3-methylmorpholino)-6,7-dihydro-5H-pyrrolo[3,4-d]pyrimidin-2-yl)phenyl)urea], the 50% inhibitory concentration (IC50) is 149 nM in test [1], > 10000 nM on PI3 Kgamma (PI3 Kg) and > 10000 nM on PI3 Kbeta (PI3 Kb).
As for `C[C@H]1COCCN1c1nc(-c2ccc(NC(=O)NC3CC3)cc2)nc2c1CN(CC(F)(F)F)C2` [Example 101, (S)-1-cyclopropyl-3-(4-(4-(3-methylmorpholino)-6-(2,2,2-trifluoroethyl)-6,7-dihydro-5H-pyrrolo[3,4-d]pyrimidin-2-yl)phenyl)urea], the IC50 in test [1] was determined as 252 nM.
As for `C[C@H]1COCCN1c1nc(-c2ccc(NC(=O)NC3CC3)cc2)nc2c1CN(C(=O)C1CCOCC1)C2` [Example 129, (S)-1-cyclopropyl-3-(4-(4-(3-methylmorpholino)-6-(tetrahydro-2H-pyran-4-carbonyl)-6,7-dihydro-5H-pyrrolo[3,4-d]pyrimidin-2-yl)phenyl)urea], the IC50 in test [1] was 336 nM; on PI3 Kgamma (PI3 Kg) it was > 10000 nM.
